23 molecules from patent US12157730B2, “Heteroaryl derivative, method for producing same, and pharmaceutical composition comprising same as effective component” (VORONOI INC., priority 2019, dated 2024) can be followed below.

The target of the experiment is T1, Ba/F3 cell EGFR Exon20 ins NPH (Homo sapiens, UniProt P00533, INS773NPH).
T1 construct: expressed in transfected cells; host or cells: Ba/F3
Briefly: Ba/F3 cell proliferation suppression, EGFR Exon20 ins NPH. It is filed as cell-based. As to conditions: GI50 class; Ba/F3 cell line with NPH inserted at Exon20 of EGFR; 72 hours. The essentials: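 Cells (3000–5000/well) plated 24 h before compound, 12-point 3-fold dilutions at 0.3 nM to 50 um final; Ba/F3 lines grown with 5 ng/ml IL-3. Viability by CellTiter-Glo luminescence after 72 h, growth ratio vs control, GI50 from curves; triplicate.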
Consider `C=CC(=O)Nc1cc(Nc2cc(N3OCC[C@@H]3c3ccc(F)c(F)c3F)ncn2)c(OC)cc1N1CCC(N2CCOCC2)CC1` [compound 621, N-(4-methoxy-2-(4-morpholinopiperidine-1-yl)-5-((6-((R)-3-(2,3,4-trifluorophenyl)isoxazolidine-2-yl)pyrimidine-4-yl)amino)phenyl)acrylamide], for which the “Ba/F3 (NPH) Activity” value is given as “A (GI50 < 50 nM)”.
Under `C=CC(=O)Nc1cc(Nc2cc(N3OCC[C@@H]3c3ccc(F)c(F)c3)ncn2)c(OC)cc1N1CC[C@H](N2CCOCC2)C1` [compound 579, N-(5-((6-((R)-3-(3,4-difluorophenyl)isoxazolidine-2-yl)pyrimidine-4-yl)amino)-4-methoxy-2-((S)-3-morpholinopyrolidine-1-yl)phenyl)acrylamide] stands “C (500 nM ≤ GI50 < 5000 nM)”; under `C=CC(=O)Nc1cc(Nc2cc(N3OCC[C@@H]3c3cccc(F)c3Cl)ncn2)c(OC)cc1N(C)CCN(C)C` [compound 551, N-(5-((6-((R)-3-(2-chloro-3-fluorophenyl)isoxazolidine-2-yl)pyrimidine-4-yl)amino)-2-((2-(dimethylamino)ethyl)(methyl)amino)-4-methoxyphenyl) acrylamide], “A (GI50 < 50 nM)”.
Under `C=CC(=O)Nc1cc(Nc2cc(N3OCC[C@@H]3c3ccc(F)c(Cl)c3)ncn2)c(OC)cc1N1CC[C@H](N(C)C)C1` [compound 906, N-(5-((6-((R)-3-(3-chloro-4-fluorophenyl)isoxazolidine-2-yl)pyrimidine-4-yl)amino)-2-((S)-3-(dimethylamino)pyrolidine-1-yl)-4-methoxyphenyl) acrylamide] stands “A (GI50 < 50 nM)”; under `C=CC(=O)Nc1cc(Nc2cc(N3OCC[C@@H]3c3cccc(OC)c3)ncn2)c(OC)cc1N1CCC(N2CCOCC2)CC1` [compound 775, N-(4-methoxy-5-((6-((R)-3-(3-methoxyphenyl)isoxazolidine-2-yl)pyrimidine-4-yl)amino)-2-(4-morpholinopiperidine-1-yl)phenyl)acrylamide], “A (GI50 < 50 nM)”; under `C=CC(=O)Nc1cc(Nc2cc(N3OCC[C@@H]3c3cccc(Cl)c3F)ncn2)c(OC)cc1N1CCC(N2C[C@@H](C)O[C@@H](C)C2)CC1` [compound 706, N-(5-((6-((R)-3-(3-chloro-2-fluorophenyl)isoxazolidine-2-yl)pyrimidine-4-yl)amino)-2-(4-((2S,6R)-2,6-dimethylmorpholino)piperidine-1-yl)-4-methoxyphenyl) acrylamide], “A (GI50 < 50 nM)”.
In the case of `C=CC(=O)Nc1cc(Nc2cc(N3OCC[C@@H]3c3ccc(Cl)c(F)c3)ncn2)c(OC)cc1N1CCN(C2CC2)CC1` [compound 364, N-(5-((6-((R)-3-(4-chloro-3-fluorophenyl)isoxazolidine-2-yl)pyrimidine-4-yl)amino)-2-(4-cyclopropylpiperazine-1-yl)-4-methoxyphenyl) acrylamide], the “Ba/F3 (NPH) Activity” value was “A (GI50 < 50 nM)”.
Regarding `C=CC(=O)Nc1cc(Nc2cc(N3OCC[C@@H]3c3cc(F)cc(F)c3)ncn2)c(OC)cc1N1CCN(C)C[C@@H]1C` [compound 919, N-(5-((6-((R)-3-(3,5-difluorophenyl)isoxazolidine-2-yl)pyrimidine-4-yl)amino)-2-((S)-2,4-dimethylpiperazine-1-yl)-4-methoxyphenyl) acrylamide], the “Ba/F3 (NPH) Activity” value is listed as “A (GI50 < 50 nM)”.
Under `C=CC(=O)Nc1cc(Nc2cc(N3OCC[C@@H]3c3cc(F)cc(F)c3)ncn2)c(OC)cc1N1CCC(N2CCC3(CC2)CC3)CC1` [compound 700, N-(2-(4-(6-azaspiro[2.5]octan-6-yl)piperidine-1-yl)-5-((6-((R)-3-(3,5-difluorophenyl)isoxazolidine-2-yl)pyrimidine-4-yl)amino)-4-methoxyphenyl) acrylamide] stands “A (GI50 < 50 nM)”.
For `C=CC(=O)Nc1cc(Nc2cc(N3OCC[C@@H]3c3ccc(F)cc3F)ncn2)c(OC)cc1N1CCC(N2CCN(C(C)=O)CC2)CC1` [compound 427, N-(2-(4-(4-acetylpiperazine-1-yl)piperidine-1-yl)-5-((6-((R)-3-(2,4-difluorophenyl)isoxazolidine-2-yl)pyrimidine-4-yl)amino)-4-methoxyphenyl) acrylamide] the value was “A (GI50 < 50 nM)”; for `C=CC(=O)Nc1cc(Nc2cc(N3OCC[C@@H]3c3ccc(F)c(F)c3)ncn2)c(OC)cc1N1CCN(C)CC1` [compound 458, N-(5-((6-((R)-3-(3,4-difluorophenyl)isoxazolidine-2-yl)pyrimidine-4-yl)amino)-4-methoxy-2-(4-methylpiperazine-1-yl)phenyl)acrylamide], “A (GI50 < 50 nM)”.
Under `C=CC(=O)Nc1cc(Nc2cc(N3OCC[C@@H]3c3cccc(F)c3F)ncn2)c(OC)cc1N1CCC(N2CC3CCC(C2)N3C2CC2)CC1` [Example 135, N-(2-(4-(8-cyclopropyl-3,8-diazabicyclo[3.2.1]octan-3-yl)piperidine-1-yl)-5-((6-((R)-3-(2,3-difluorophenyl)isoxazolidine-2-yl)pyrimidine-4-yl)amino)-4-methoxyphenyl) acrylamide] stands “A (GI50 < 50 nM)”; under `C=CC(=O)Nc1cc(Nc2cc(N3OCC[C@@H]3c3cccc(C#N)c3)ncn2)c(OC)cc1N1C[C@H]2CCN(C)[C@H]2C1` [compound 331, N-(5-((6-((R)-3-(3-cyanophenyl)isoxazolidine-2-yl)pyrimidine-4-yl)amino)-4-methoxy-2-((3aR, 6aR)-1-methylhexahydropyrrolo [3,4-b]pyrrole-5(1H)-yl)phenyl)acrylamide], “A (GI50 < 50 nM)”; under `C=CC(=O)Nc1cc(Nc2cc(N3OCC[C@H]3Cc3ccccc3)ncn2)c(OC)cc1N1CCN(C)CC1` [compound 968, N-(5-((6-((R)-3-benzylisoxazolidine-2-yl)pyrimidine-4-yl)amino)-4-methoxy-2-(4-methylpiperazine-1-yl)phenyl)acrylamide], “C (500 nM ≤ GI50 < 5000 nM)”.
As to `C=CC(=O)Nc1cc(Nc2cc(N3OCC[C@@H]3c3cccc(Cl)c3F)ncn2)c(OC)cc1N1CCC(N2CCN(CC)CC2)CC1` [compound 913, N-(5-((6-((R)-3-(3-chloro-2-fluorophenyl)isoxazolidine-2-yl)pyrimidine-4-yl)amino)-2-(4-(4-ethylpiperazine-1-yl)piperidine-1-yl)-4-methoxyphenyl) acrylamide], the “Ba/F3 (NPH) Activity” value was “A (GI50 < 50 nM)”.
For `C=CC(=O)Nc1cc(Nc2cc(N3OCC[C@@H]3c3cccc(C#N)c3)ncn2)c(OC)cc1N1CCC(N2CCN(C3CC3)[C@H](C)C2)CC1` [Example 126, N-(5-((6-((R)-3-(3-cyanophenyl)isoxazolidine-2-yl)pyrimidine-4-yl)amino)-2-(4-((R)-4-cyclopropyl-3-methylpiperazine-1-yl)piperidine-1-yl)-4-methoxyphenyl) acrylamide], the “Ba/F3 (NPH) Activity” value is “A (GI50 < 50 nM)”.
As for `C=CC(=O)Nc1cc(Nc2cc(N3OCC[C@@H]3c3cccc(F)c3F)ncn2)c(OC)cc1N1CCN(C)CC1` [compound 925, N-(5-((6-((R)-3-(2,3-difluorophenyl)isoxazolidine-2-yl)pyrimidine-4-yl)amino)-4-methoxy-2-(4-methylpiperazine-1-yl)phenyl)acrylamide], the “Ba/F3 (NPH) Activity” value is “A (GI50 < 50 nM)”.
For `C=CCN1CCN(C2CCN(c3cc(OC)c(Nc4cc(N5OCC[C@@H]5c5cccc(C#N)c5)ncn4)cc3NC(=O)C=C)CC2)CC1` [Example 210, N-(2-(4-(4-allylpiperazine-1-yl)piperidine-1-yl)-5-((6-((R)-3-(3-cyanophenyl)isoxazolidine-2-yl)pyrimidine-4-yl)amino)-4-methoxyphenyl) acrylamide] the value was “A (GI50 < 50 nM)”.
Under `C=CC(=O)Nc1cc(Nc2cc(N3OCC[C@@H]3c3cccc(F)c3Cl)ncn2)c(OC)cc1N1CCC(N2CCN(C(C)=O)CC2)CC1` [compound 601, N-(2-(4-(4-acetylpiperazine-1-yl)piperidine-1-yl)-5-((6-((R)-3-(2-chloro-3-fluorophenyl)isoxazolidine-2-yl)pyrimidine-4-yl)amino)-4-methoxyphenyl) acrylamide] stands “A (GI50 < 50 nM)”; under `C=CC(=O)Nc1cc(Nc2cc(N3OCC[C@@H]3c3ccc(F)c(F)c3F)ncn2)c(OC)cc1N1CCC(N2CCC(N(C)C)CC2)CC1` [compound 656, N-(2-(4-(dimethylamino)-[1,4'-bipiperidine]-1'-yl)-4-methoxy-5-((6-((R)-3-(2,3,4-trifluorophenyl)isoxazolidine-2-yl)pyrimidine-4-yl)amino)phenyl)acrylamide], “B (50 nM ≤ GI50 < 500 nM)”; under `C=CC(=O)Nc1cc(Nc2cc(N3OCC[C@@H]3c3ccc(F)c(Cl)c3)ncn2)c(OC)cc1N1CCC(N2CC[C@H](N(C)C)C2)CC1` [compound 764, N-(5-((6-((R)-3-(3-chloro-4-fluorophenyl)isoxazolidine-2-yl)pyrimidine-4-yl)amino)-2-(4-((S)-3-(dimethylamino)pyrolidine-1-yl)piperidine-1-yl)-4-methoxyphenyl) acrylamide], “A (GI50 < 50 nM)”.
For `C=CC(=O)Nc1cc(Nc2cc(N3OCC[C@@H]3c3cccc(C(F)(F)F)c3)ncn2)c(OC)cc1N1CCN(CC)CC1` [compound 452, N-(2-(4-ethylpiperazine-1-yl)-4-methoxy-5-((6-((R)-3-(3-(trifluoromethyl)phenyl)isoxazolidine-2-yl)pyrimidine-4-yl)amino)phenyl) acrylamide] the value was “A (GI50 < 50 nM)”; for `C=CC(=O)Nc1cc(Nc2cc(N3OCC[C@@H]3c3ccc(F)c(F)c3F)ncn2)c(OC)cc1N(C)CCN(C)C` [compound 571, N-(2-((2-(dimethylamino)ethyl) (methyl)amino)-4-methoxy-5-((6-((R)-3-(2,3,4-trifluorophenyl)isoxazolidine-2-yl)pyrimidine-4-yl)amino)phenyl) acrylamide], “A (GI50 < 50 nM)”.
